Patent US10428063B2 (Bayer Pharma Aktiengesellschaft, priority 2015, dated 2019)

Target: catalytic domain of human Bub1 (amino acids 704-1085) (Homo sapiens (Human), UniProt O43683)
Test: Bub1 kinase assay (TR-FRET)
Type: biochemical
Settings: 10 μM ATP, 1 μM peptide substrate, recombinant catalytic domain of human Bub1, read-out: Bub1 kinase assay median IC50
Text: Bub1-inhibitory activities of compounds described in the present invention were quantified using a time-resolved fluorescence energy transfer (TR-FRET) kinase assay which measures phosphorylation of the synthetic peptide Biotin-Ahx-VLLPKKSFAEPG (C-terminus in amide form), purchased from e.g. Biosyntan (Berlin, Germany) by the (recombinant) catalytic domain of human Bub1 (amino acids 704-1085), expressed in Hi5 insect cells with an N-terminal His6-tag and purified by affinity- (Ni-NTA) and size exclusion chromatography.
In a typical assay 11 different concentrations of each compound (0.1 nM, 0.33 nM, 1.1 nM, 3.8 nM, 13 nM, 44 nM, 0.15 μM, 0.51 μM, 1.7 μM, 5.9 μM and 20 μM) were tested in duplicate within the same microtiter plate. To this end, 100-fold concentrated compound solutions (in DMSO) were previously prepared by serial dilution (1:3.4) of 2 mM stocks in a clear low volume 384-well source microtiter plate (Greiner Bio-One, Frickenhausen, Germany), from which 50 nl of compounds were transferred into a black low volume test microtiter plate from the same supplier. Subsequently, 2 μl of Bub1 (the final concentration of Bub1 was adjusted depending on the activity of the enzyme lot in order to be within the linear dynamic range of the assay: typically ˜200 ng/ml were used) in aqueous assay buffer [50 mM Tris/HCl pH 7.5, 10 mM magnesium chloride (MgCl2), 200 mM potassium chloride (KCl), 1.0 mM dithiothreitol (DTT), 0.1 mM sodium ortho-vanadate, 1% (v/v) glycerol, 0.01% (w/v) bovine serum albumine (BSA), 0.005% (v/v) Trition X-100 (Sigma), 1× Complete EDTA-free protease inhibitor mixture (Roche)] were added to the compounds in the test plate and the mixture was incubated for 15 min at 22° C. to allow pre-equilibration of the putative enzyme-inhibitor complexes before the start of the kinase reaction, which was initiated by the addition of 3 μl 1.67-fold concentrated solution (in assay buffer) of adenosine-tri-phosphate (ATP, 10 μM final concentration) and peptide substrate (1 μM final concentration). The resulting mixture (5 μl final volume) was incubated at 22° C. during 60 min., and the reaction was stopped by the addition of 5 μl of an aqueous EDTA-solution (50 mM EDTA, in 100 mM HEPES pH 7.5 and 0.2% (w/v) bovine serum albumin) which also contained the TR-FRET detection reagents (0.2 μM streptavidin-XL665 [Cisbio Bioassays, Codolet, France] and 1 nM anti-phosho-Serine antibody [Merck Millipore, cat. #35-002] and 0.4 nM LANCE EU-W1024 labeled anti-mouse IgG antibody [Perkin-Elmer, product no. AD0077, alternatively a Terbium-cryptate-labeled anti-mouse IgG antibody from Cisbio Bioassays can be used]). The stopped reaction mixture was further incubated 1 h at 22° C. in order to allow the formation of complexes between peptides and detection reagents. Subsequently, the amount of product was evaluated by measurement of the resonance energy transfer from the Eu-chelate-antibody complex recognizing the Phosphoserine residue to the streptavidin-XL665 bound to the biotin moiety of the peptide. To this end, the fluorescence emissions at 620 nm and 665 nm after excitation at 330-350 nm were measured in a TR-FRET plate reader, e.g. a Rubystar or Pherastar (both from BMG Labtechnologies, Offenburg, Germany) or a Viewlux (Perkin-Elmer) and the ratio of the emissions (665 nm/622 nm) was taken as indicator for the amount of phosphorylated substrate. The data were normalised using two sets of control wells for high- (=enzyme reaction without inhibitor=0%=Minimum inhibition) and low- (=all assay components without enzyme=100%=Maximum inhibition) Bub1 activity. IC50 values were calculated by fitting the normalized inhibition data to a 4-parameter logistic equation (Minimum, Maximum, IC50, Hill; Y=Max+(Min−Max)/(1+(X/IC50)Hill)).

Chain of catalytic domain of human Bub1 (amino acids 704-1085) (O43683 704-1085): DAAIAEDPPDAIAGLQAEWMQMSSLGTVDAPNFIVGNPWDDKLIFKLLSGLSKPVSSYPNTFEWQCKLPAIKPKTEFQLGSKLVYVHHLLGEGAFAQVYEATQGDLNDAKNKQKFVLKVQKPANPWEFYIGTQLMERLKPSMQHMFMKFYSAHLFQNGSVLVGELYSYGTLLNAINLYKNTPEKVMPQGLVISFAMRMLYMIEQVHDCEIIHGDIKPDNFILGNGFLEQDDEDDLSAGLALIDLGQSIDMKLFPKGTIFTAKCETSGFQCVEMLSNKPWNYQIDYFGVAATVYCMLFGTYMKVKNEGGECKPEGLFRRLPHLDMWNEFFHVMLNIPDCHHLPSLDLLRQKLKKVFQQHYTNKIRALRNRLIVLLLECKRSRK

Row | SMILES | IC50 [nM]
1 | CN1CCc2[nH]c(-c3ccncc3OCCC(C)(C)C)c(Nc3ccccc3)c2C1=O [Example 35, 2-[3-(3,3-dimethylbutoxy)pyridin-4-yl]-5-methyl-3-(phenylamino)-1,5,6,7-tetrahydro-4H-pyrrolo[3,2-c]pyridin-4-one] | 85.9
2 | O=C1NCCc2[nH]c(-c3ccncc3OCC3CC3)c(Nc3ccc(F)cc3)c21 [Example 38, 2-[3-(cyclopropylmethoxy)pyridin-4-yl]-3-[(4-fluorophenyl)amino]-1,5,6,7-tetrahydro-4H-pyrrolo[3,2-c]pyridin-4-one] | 56.1
3 | O=c1[nH]ccc2[nH]c(-c3ccncc3F)c(Nc3ccccc3)c12 [Example 16, 2-(3-fluoropyridin-4-yl)-3-(phenylamino)-1,5-dihydro-4H-pyrrolo[3,2-c]pyridin-4-one] | 19.1
4 | CCn1c2c(c(Nc3ccc(F)cc3)c1-c1ccncc1)C(=O)NCC2 [Example 11, 1-ethyl-3-[(4-fluorophenyl)amino]-2-(pyridin-4-yl)-1,5,6,7-tetrahydro-4H-pyrrolo[3,2-c]pyridin-4-one] | 64.5
5 | CN1CCc2[nH]c(-c3ccnc4[nH]cnc34)c(Nc3ccccc3)c2C1=O [Example 36, 2-(3H-imidazo[4,5-b]pyridin-7-yl)-5-methyl-3-(phenylamino)-1,5,6,7-tetrahydro-4H-pyrrolo[3,2-c]pyridin-4-one] | 34.8
6 | COCCOc1cnccc1-c1[nH]c2c(c1Nc1cccc(F)c1)C(=O)NCC2 [Example 47, 3-[(3-fluorophenyl)amino]-2-[3-(2-methoxyethoxy)pyridin-4-yl]-1,5,6,7-tetrahydro-4H-pyrrolo[3,2-c]pyridin-4-one] | 19.4
7 | CN1CCc2[nH]c(-c3ccncc3OCC3CC3)c(Nc3ccccc3)c2C1=O [Example 27, 2-[3-(cyclopropylmethoxy)pyridin-4-yl]-5-methyl-3-(phenylamino)-1,5,6,7-tetrahydro-4H-pyrrolo[3,2-c]pyridin-4-one] | 21.7
8 | O=C1NCCc2[nH]c(-c3ccncc3F)c(Nc3ccccc3)c21 [Example 18, 2-(3-fluoropyridin-4-yl)-3-(phenylamino)-1,5,6,7-tetrahydro-4H-pyrrolo[3,2-c]pyridin-4-one] | 11.5
9 | COCCOc1cnccc1-c1[nH]c2c(c1Nc1ccc(F)c(F)c1)C(=O)NCC2 [Example 45, 3-[(3,4-difluorophenyl)amino]-2-[3-(2-methoxyethoxy)pyridin-4-yl]-1,5,6,7-tetrahydro-4H-pyrrolo[3,2-c]pyridin-4-one] | 28
10 | CN1CCc2[nH]c(-c3ccnc(NC(=O)[C@@H]4C[C@@H]4F)c3)c(Nc3ccccc3)c2C1=O [Example 40, (1S,2S)-2-fluoro-N-{4-[5-methyl-4-oxo-3-(phenylamino)-4,5,6,7-tetrahydro-1H-pyrrolo[3,2-c]pyridin-2-yl]pyridin-2-yl}cyclopropanecarboxamide] | 28.1
11 | O=C1NCCc2[nH]c(-c3ccncc3OCC(F)F)c(Nc3ccc(F)cc3)c21 [Example 42, 2-[3-(2,2-difluoroethoxy)pyridin-4-yl]-3-[(4-fluorophenyl)amino]-1,5,6,7-tetrahydro-4H-pyrrolo[3,2-c]pyridin-4-one] | 111
12 | CC(C)C(=O)Nc1cc(-c2[nH]c3c(c2Nc2ccccc2)C(=O)N(C(=O)C(C)C)CC3)ccn1 [Example 10, 2-methyl-N-{4-[5-(2-methylpropanoyl)-4-oxo-3-(phenylamino)-4,5,6,7-tetrahydro-1H-pyrrolo[3,2-c]pyridin-2-yl]pyridin-2-yl}propanamide] | 319
13 | O=C1NCCc2[nH]c(-c3ccncc3OCC3CC3)c(Nc3ccc(F)c(F)c3)c21 [Example 37, 2-[3-(cyclopropylmethoxy)pyridin-4-yl]-3-[(3,4-difluorophenyl)amino]-1,5,6,7-tetrahydro-4H-pyrrolo[3,2-c]pyridin-4-one] | 59.8
14 | CC(=O)Nc1cc(-c2[nH]c3c(c2Nc2ccccc2)C(=O)NCC3)ccn1 [Example 14] | 18.3
15 | CCCOc1cnccc1-c1[nH]c2c(c1Nc1ccccc1)C(=O)N(C)CC2 [Example 28, 5-methyl-3-(phenylamino)-2-(3-propoxypyridin-4-yl)-1,5,6,7-tetrahydro-4H-pyrrolo[3,2-c]pyridin-4-one] | 51.6
16 | CCn1c2c(c(Nc3ccccc3)c1-c1ccncc1)C(=O)NC(C)(C)C2 [Example 4, 1-ethyl-6,6-dimethyl-3-(phenylamino)-2-(pyridin-4-yl)-1,5,6,7-tetrahydro-4H-pyrrolo[3,2-c]pyridin-4-one] | 14.6
17 | CN1CCc2[nH]c(-c3ccncc3OCCO)c(Nc3ccccc3)c2C1=O [Example 26, 2-[3-(2-hydroxyethoxy)pyridin-4-yl]-5-methyl-3-(phenylamino)-1,5,6,7-tetrahydro-4H-pyrrolo[3,2-c]pyridin-4-one] | 47.6
18 | CN1CCc2[nH]c(-c3ccncc3)c(Nc3ccccc3)c2C1=O [Example 20, 5-methyl-3-(phenylamino)-2-(pyridin-4-yl)-1,5,6,7-tetrahydro-4H-pyrrolo[3,2-c]pyridin-4-one] | 13.4
19 | CCNC(=O)Nc1cc(-c2[nH]c3c(c2Nc2ccccc2)C(=O)NCC3)ccn1 [Example 19, 1-ethyl-3-{4-[4-oxo-3-(phenylamino)-4,5,6,7-tetrahydro-1H-pyrrolo[3,2-c]pyridin-2-yl]pyridin-2-yl}urea] | 19.5
20 | CN1CCc2[nH]c(-c3ccncc3OCC(F)F)c(Nc3ccccc3)c2C1=O [Example 29, 2-[3-(2,2-difluoroethoxy)pyridin-4-yl]-5-methyl-3-(phenylamino)-1,5,6,7-tetrahydro-4H-pyrrolo[3,2-c]pyridin-4-one] | 70.8
21 | Nc1cc(-c2[nH]c3c(c2Nc2ccccc2)C(=O)NCC3)ccn1 [Example 8, 2-(2-aminopyridin-4-yl)-3-(phenylamino)-1,5,6,7-tetrahydro-4H-pyrrolo[3,2-c]pyridin-4-one] | 138
22 | COCCOc1cnccc1-c1[nH]c2c(c1Nc1ccccc1)C(=O)N(C)CC2 [Example 31, 2-[3-(2-methoxyethoxy)pyridin-4-yl]-5-methyl-3-(phenylamino)-1,5,6,7-tetrahydro-4H-pyrrolo[3,2-c]pyridin-4-one] | 9.93
23 | CN1CCc2[nH]c(-c3ccnc(NC(=O)[C@H]4C[C@H]4F)c3)c(Nc3ccccc3)c2C1=O (relative stereo) [Example 25, rel-(1R,2R)-2-fluoro-N-{4-[5-methyl-4-oxo-3-(phenylamino)-4,5,6,7-tetrahydro-1H-pyrrolo[3,2-c]pyridin-2-yl]pyridin-2-yl}cyclopropanecarboxamide] | 17.1
24 | CC(=O)Nc1cc(-c2[nH]c3c(c2Nc2ccccc2)C(=O)N(C)CC3)ccn1 [Example 23] | 23.2
25 | CN1CCc2[nH]c(-c3ccncc3F)c(Nc3ccccc3)c2C1=O [Example 17, 2-(3-fluoropyridin-4-yl)-5-methyl-3-(phenylamino)-1,5,6,7-tetrahydro-4H-pyrrolo[3,2-c]pyridin-4-one] | 8.7
26 | CN1CCc2[nH]c(-c3ccncc3OCc3ccccc3)c(Nc3ccccc3)c2C1=O [Example 32, 2-[3-(benzyloxy)pyridin-4-yl]-5-methyl-3-(phenylamino)-1,5,6,7-tetrahydro-4H-pyrrolo[3,2-c]pyridin-4-one] | 41.6
27 | O=C1NCCc2[nH]c(-c3ccncc3OCC3CC3)c(Nc3cccc(F)c3)c21 [Example 39, 2-[3-(cyclopropylmethoxy)pyridin-4-yl]-3-[(3-fluorophenyl)amino]-1,5,6,7-tetrahydro-4H-pyrrolo[3,2-c]pyridin-4-one] | 24.1
